Assay results: ChEMBL document CHEMBL1649144, “Breakpoints for susceptibility testing should not divide wild-type distributions of important target species” (2009)
Values after ≈ are worked out from the molar mass of the structure shown.

Legend:
Format in all cases: functional
Candida parapsilosis = experiment: Antimicrobial activity against Candida parapsilosis ATCC 21019 by EUCAST method; conditions: Lodderomyces parapsilosis
Nakaseomyces glabratus [1] = experiment: Antimicrobial activity against Candida glabrata by EUCAST method
Nakaseomyces glabratus [2] = experiment: Antimicrobial activity against Candida glabrata SSI-M68190-2007 by EUCAST method

`OC(Cn1cncn1)(Cn1cncn1)c1ccc(F)cc1F` [FLUCONAZOLE] gave an MIC (Candida parapsilosis) of 0.5 µg/mL (≈ 1.63 µM), an MIC (Nakaseomyces glabratus [1]) of 8 µg/mL (≈ 26.1 µM) and an MIC (Nakaseomyces glabratus [2]) of 0.5 µg/mL (≈ 1.63 µM).
